Experimental data reported in patent US12258328B2, “6-membered heteroaryl-containing aminopyridine compounds as EGFR inhibitors” (YUHAN CORPORATION, priority 2021, dated 2025).
Where two headings read alike, the source gives them in different places.

Assays:
EGFR del19/T790M/C797S = EGFR del19/T790M/C797S (Homo sapiens, UniProt P00533, C797S/DEL746-750/T790M); test: Biochemical EGFR kinase assay (Lance Ultra TR-FRET), triple mutant del19/T790M/C797S
Procedure, shortened: (§1)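 Kinase activity is measured by TR-FRET phosphopeptide detection. Compounds span 0.003 μM to 10 μM; the 1 h reaction at room temperature is quenched with EDTA, then labelled antibody (2 nM) is incubated 60 min before reading.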

EGFR L858R/T790M/C797S = EGFR L858R/T790M/C797S (Homo sapiens, UniProt P00533, C797S/L858R/T790M); test: Biochemical EGFR kinase assay (Lance Ultra TR-FRET), triple mutant L858R/T790M/C797S
Procedure, shortened: as §1

EGFR wildtype = EGFR wildtype (Homo sapiens, UniProt P00533); test: Biochemical EGFR kinase assay (Lance Ultra TR-FRET), wildtype
Procedure, shortened: as §1

EGFR L858R/C797S = EGFR L858R/C797S (Homo sapiens, UniProt P00533, C797S/L858R); test: Biochemical EGFR kinase assay (Lance Ultra TR-FRET), double mutant L858R/C797S
Procedure, shortened: as §1

EGFR del19/C797S = EGFR del19/C797S (Homo sapiens, UniProt P00533, C797S/DEL746-750); test: Biochemical EGFR kinase assay (Lance Ultra TR-FRET), double mutant del19/C797S
Procedure, shortened: as §1

[1] = ATP at Km, read-out: IC50 del19/T790M/C797S, Km ATP
[2] = ATP at Km, read-out: IC50 L858R/T790M/C797S, Km ATP
[3] = ATP at Km, read-out: IC50 WT, Km ATP
[4] = ATP at Km, read-out: IC50 L858R/C797S, Km ATP
[5] = ATP at Km, read-out: IC50 del19/C797S, Km ATP
[6] = Km ATP, read-out: IC50 del19/T790M/C797S (nM) Km ATP
[7] = Km ATP, read-out: IC50 L858R/T790M/C797S (nM) Km ATP
[8] = Km ATP, read-out: IC50 WT (nM) Km ATP
[9] = Km ATP, read-out: IC50 L858R/C797S (nM) Km ATP
[10] = Km ATP, read-out: IC50 del19/C797S (nM) Km ATP
[11] = IC50 del19/T790M/C797S, 100 μM ATP
[12] = IC50 L858R/T790M/C797S, 100 μM ATP

EGFR del19/T790M/C797S, sequence (P00533 with tags, fused parts or gaps DEL746-750/T790M/C797S): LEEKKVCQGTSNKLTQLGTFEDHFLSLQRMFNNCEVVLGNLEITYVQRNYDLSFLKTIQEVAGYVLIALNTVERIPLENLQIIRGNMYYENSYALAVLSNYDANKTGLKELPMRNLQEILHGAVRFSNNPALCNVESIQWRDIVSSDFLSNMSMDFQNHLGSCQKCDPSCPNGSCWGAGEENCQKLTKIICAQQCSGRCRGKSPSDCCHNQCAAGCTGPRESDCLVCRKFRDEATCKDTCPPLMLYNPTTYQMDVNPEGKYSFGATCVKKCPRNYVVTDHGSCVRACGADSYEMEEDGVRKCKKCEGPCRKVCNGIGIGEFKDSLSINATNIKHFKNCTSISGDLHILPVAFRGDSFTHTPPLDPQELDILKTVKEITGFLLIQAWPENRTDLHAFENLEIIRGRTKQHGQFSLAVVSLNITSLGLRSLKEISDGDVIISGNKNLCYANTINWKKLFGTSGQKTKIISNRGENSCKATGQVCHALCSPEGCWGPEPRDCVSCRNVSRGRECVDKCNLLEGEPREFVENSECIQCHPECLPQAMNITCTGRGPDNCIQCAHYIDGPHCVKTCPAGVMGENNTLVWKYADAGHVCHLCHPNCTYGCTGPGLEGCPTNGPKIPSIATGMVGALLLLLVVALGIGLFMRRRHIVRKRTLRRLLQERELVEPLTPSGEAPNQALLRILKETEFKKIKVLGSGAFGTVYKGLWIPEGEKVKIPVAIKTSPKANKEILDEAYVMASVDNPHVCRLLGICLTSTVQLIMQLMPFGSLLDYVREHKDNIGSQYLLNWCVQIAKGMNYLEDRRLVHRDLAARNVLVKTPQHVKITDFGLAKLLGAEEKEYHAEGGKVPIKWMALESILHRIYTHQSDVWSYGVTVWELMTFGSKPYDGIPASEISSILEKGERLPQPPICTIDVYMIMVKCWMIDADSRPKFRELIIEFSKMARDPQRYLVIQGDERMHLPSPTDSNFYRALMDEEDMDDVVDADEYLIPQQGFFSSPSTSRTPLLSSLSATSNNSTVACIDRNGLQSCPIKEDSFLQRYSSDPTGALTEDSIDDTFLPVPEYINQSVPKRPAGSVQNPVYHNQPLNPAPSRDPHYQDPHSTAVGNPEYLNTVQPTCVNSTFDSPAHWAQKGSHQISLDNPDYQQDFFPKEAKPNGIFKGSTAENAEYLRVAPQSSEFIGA
EGFR del19/C797S, sequence (P00533 with tags, fused parts or gaps DEL746-750/C797S): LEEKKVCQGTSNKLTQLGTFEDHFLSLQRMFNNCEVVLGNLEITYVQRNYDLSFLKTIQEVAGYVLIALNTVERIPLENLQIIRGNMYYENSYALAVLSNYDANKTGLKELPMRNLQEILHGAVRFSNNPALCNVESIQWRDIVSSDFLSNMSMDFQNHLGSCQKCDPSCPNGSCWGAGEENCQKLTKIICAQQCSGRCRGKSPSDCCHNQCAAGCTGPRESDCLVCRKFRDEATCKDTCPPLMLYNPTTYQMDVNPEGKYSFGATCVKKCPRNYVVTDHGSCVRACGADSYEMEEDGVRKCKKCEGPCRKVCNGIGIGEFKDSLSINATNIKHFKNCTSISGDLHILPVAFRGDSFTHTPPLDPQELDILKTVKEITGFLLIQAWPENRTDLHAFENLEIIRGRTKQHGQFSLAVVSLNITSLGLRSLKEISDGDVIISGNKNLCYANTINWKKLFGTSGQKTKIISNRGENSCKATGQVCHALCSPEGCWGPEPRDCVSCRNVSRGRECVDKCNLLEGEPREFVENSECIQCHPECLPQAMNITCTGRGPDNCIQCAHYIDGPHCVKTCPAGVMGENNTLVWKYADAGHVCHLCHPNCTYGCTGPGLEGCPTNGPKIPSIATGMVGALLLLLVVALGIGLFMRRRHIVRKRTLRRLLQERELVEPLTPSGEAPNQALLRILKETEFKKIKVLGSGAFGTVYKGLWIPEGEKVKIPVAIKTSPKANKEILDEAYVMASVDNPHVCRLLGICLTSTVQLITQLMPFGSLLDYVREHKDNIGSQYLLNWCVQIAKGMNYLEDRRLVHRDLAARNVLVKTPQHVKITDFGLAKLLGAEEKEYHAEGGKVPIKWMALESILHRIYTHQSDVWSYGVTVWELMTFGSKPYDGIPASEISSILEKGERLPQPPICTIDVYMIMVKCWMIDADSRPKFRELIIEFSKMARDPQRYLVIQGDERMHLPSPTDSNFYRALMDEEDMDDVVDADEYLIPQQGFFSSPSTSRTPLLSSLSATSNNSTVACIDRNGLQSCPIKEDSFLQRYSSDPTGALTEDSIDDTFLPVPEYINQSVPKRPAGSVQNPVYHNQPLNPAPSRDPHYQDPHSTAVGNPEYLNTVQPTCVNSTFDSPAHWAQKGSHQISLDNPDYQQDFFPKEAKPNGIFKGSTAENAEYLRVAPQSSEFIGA
EGFR wildtype, sequence (P00533 25-1210): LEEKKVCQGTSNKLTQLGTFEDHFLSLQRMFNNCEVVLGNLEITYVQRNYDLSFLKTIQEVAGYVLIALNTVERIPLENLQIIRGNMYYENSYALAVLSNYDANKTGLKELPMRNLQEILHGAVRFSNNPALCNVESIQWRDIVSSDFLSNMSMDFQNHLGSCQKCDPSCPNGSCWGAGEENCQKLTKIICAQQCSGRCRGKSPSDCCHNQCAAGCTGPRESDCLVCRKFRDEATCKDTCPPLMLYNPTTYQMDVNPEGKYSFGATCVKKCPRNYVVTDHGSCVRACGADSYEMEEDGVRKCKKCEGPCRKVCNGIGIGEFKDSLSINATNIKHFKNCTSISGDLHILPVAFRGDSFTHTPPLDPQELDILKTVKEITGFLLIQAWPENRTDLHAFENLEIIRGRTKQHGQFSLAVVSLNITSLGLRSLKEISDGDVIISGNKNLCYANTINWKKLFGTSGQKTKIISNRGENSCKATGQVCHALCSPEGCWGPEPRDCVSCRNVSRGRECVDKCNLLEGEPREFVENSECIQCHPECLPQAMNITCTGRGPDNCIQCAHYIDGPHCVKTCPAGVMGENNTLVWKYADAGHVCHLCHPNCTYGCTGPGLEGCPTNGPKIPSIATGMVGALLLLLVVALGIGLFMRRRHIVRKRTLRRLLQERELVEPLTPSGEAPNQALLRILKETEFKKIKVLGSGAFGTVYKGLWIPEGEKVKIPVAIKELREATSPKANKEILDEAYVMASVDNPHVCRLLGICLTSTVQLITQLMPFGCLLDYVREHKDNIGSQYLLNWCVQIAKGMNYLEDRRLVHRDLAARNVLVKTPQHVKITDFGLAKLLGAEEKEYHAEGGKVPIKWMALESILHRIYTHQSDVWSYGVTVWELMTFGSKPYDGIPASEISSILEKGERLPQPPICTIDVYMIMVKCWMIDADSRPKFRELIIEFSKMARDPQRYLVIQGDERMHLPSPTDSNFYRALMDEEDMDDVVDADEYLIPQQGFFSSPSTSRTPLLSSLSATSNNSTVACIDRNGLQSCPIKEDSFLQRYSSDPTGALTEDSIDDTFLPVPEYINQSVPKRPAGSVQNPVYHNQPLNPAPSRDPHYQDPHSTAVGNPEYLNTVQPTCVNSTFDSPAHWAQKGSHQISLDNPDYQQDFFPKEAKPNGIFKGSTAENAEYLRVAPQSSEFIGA
EGFR L858R/C797S, sequence (P00533 25-1210 C797S/L858R): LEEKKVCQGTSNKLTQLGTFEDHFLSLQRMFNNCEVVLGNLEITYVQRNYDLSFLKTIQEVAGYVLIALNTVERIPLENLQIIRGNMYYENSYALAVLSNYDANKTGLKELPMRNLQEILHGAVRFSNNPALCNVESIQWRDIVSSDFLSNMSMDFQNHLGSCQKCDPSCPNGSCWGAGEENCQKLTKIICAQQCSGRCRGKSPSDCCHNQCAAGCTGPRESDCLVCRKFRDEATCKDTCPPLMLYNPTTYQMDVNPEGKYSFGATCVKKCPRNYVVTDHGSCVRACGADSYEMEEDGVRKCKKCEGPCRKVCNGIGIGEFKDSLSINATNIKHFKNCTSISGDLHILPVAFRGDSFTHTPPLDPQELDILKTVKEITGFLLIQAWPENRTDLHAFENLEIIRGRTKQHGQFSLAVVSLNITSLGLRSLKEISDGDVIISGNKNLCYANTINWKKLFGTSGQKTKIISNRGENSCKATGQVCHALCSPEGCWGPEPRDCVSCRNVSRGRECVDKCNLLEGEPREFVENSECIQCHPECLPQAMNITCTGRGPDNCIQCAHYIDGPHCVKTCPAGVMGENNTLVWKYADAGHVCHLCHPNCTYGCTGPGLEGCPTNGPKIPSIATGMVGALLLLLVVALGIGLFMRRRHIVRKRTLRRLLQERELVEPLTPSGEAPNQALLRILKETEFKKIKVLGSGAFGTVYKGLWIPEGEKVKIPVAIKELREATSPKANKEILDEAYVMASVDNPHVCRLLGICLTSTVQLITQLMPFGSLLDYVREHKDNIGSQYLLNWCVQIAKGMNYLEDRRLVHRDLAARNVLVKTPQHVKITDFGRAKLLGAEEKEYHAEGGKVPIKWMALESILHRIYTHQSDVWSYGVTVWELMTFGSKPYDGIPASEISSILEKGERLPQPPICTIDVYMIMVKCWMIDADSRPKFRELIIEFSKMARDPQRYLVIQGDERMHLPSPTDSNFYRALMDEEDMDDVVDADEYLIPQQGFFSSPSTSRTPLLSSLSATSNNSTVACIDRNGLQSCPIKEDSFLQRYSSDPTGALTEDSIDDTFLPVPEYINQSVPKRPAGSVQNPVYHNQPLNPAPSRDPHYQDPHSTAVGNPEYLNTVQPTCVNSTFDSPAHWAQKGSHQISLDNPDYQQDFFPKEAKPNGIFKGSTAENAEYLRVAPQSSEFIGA

Compound	IC50 (EGFR del19/T790M/C797S; [1]) [nM]	IC50 (EGFR L858R/T790M/C797S; [2]) [nM]	IC50 (EGFR wildtype; [3]) [nM]	IC50 (EGFR L858R/C797S; [4]) [nM]	IC50 (EGFR del19/C797S; [5]) [nM]	IC50 (EGFR del19/T790M/C797S; [6]) [nM]	IC50 (EGFR L858R/T790M/C797S; [7]) [nM]	IC50 (EGFR wildtype; [8]) [nM]	IC50 (EGFR L858R/C797S; [9]) [nM]	IC50 (EGFR del19/C797S; [10]) [nM]	IC50 (EGFR del19/T790M/C797S; [11]) [nM]	IC50 (EGFR L858R/T790M/C797S; [12]) [nM]	IC50 (EGFR wildtype; IC50 WT, 100 μM ATP) [nM]	IC50 (EGFR L858R/C797S; IC50 L858R/C797S, 100 μM ATP) [nM]	IC50 (EGFR del19/C797S; IC50 del19/C797S, 100 μM ATP) [nM]	IC50 (EGFR del19/T790M/C797S; IC50 del19/T790M/C797S (nM) 100 μM ATP, 100 μM ATP) [nM]	IC50 (EGFR L858R/T790M/C797S; IC50 L858R/T790M/C797S (nM) 100 μM ATP, 100 μM ATP) [nM]	IC50 (EGFR wildtype; IC50 WT (nM) 100 μM ATP, 100 μM ATP) [nM]	IC50 (EGFR L858R/C797S; IC50 L858R/C797S (nM) 100 μM ATP, 100 μM ATP) [nM]	IC50 (EGFR del19/C797S; IC50 del19/C797S (nM) 100 μM ATP, 100 μM ATP) [nM]
CC(C)Nc1cc(Nc2ccnc(-c3cnn(S(=O)(=O)C4CC4)c3)n2)ncc1-c1ccc(OC2CCN(C)CC2)cn1 [Example 249, N^6′-(2-(1-(Cyclopropylsulfonyl)-1H-pyrazol-4-yl)pyrimidin-4-yl)-N^4′-isopropyl-5-((1-methylpiperidin-4-yl)oxy)-[2,3′-bipyridine]-4′,6′-diamine]	0.5	0.2	2.8	0.2	0.4	–	–	–	–	–	–	–	–	–	–	–	–	–	–	–
COc1c(F)ccnc1-c1cnc(Nc2ccnc(-c3cnn(CC(F)F)c3)n2)cc1N[C@H]1CC[C@@](C)(O)CC1 [Example 336, (1s,4s)-4-((6′-((2-(1-(2,2-Difluoroethyl)-1H-pyrazol-4-yl)pyrimidin-4-yl)amino)-4-fluoro-3-methoxy-[2,3′-bipyridin]-4′-yl)amino)-1-methylcyclohexan-1-ol]	–	–	–	–	–	345	43.9	235	1670	3820	–	–	–	–	–	–	–	–	–	–
CC(O)(c1ccc(-c2cnc(Nc3ccnc(-c4cnn(S(=O)(=O)C5CC5)c4)n3)cc2N[C@H]2CCC[C@H](CO)C2)nc1)C(F)(F)F (stereo partly drawn) [Example 232, 2-(6′-((2-(1-(Cyclopropylsulfonyl)-1H-pyrazol-4-yl)pyrimidin-4-yl)amino)-4′-(((1S,3S)-3-(hydroxymethyl)cyclohexyl)amino)-[2,3′-bipyridin]-5-yl)-1,1,1-trifluoropropan-2-ol]	3.9	0.8	19	6.7	3.3	–	–	–	–	–	2.1	0.8	8760	60.2	9.5	–	–	–	–	–
CN1CCN(C(=O)c2ccc(-c3cnc(Nc4ccnc(-c5cnn(S(=O)(=O)C6CC6)c5)n4)cc3N[C@H]3CC[C@@H](C(C)(C)O)CC3)nc2)CC1 [Example 203, (6′-((2-(1-(Cyclopropylsulfonyl)-1H-pyrazol-4-yl)pyrimidin-4-yl)amino)-4′-(((1s,4s)-4-(2-hydroxypropan-2-yl)cyclohexyl)amino)-[2,3′-bipyridin]-5-yl)(4-methylpiperazin-1-yl)methanone]	0.4	0.2	0.3	0.1	0.1	–	–	–	–	–	0.7	0.3	395	0.8	0.3	–	–	–	–	–
CC1(O)CCC(Nc2cc(Nc3ccnc(-c4cnn(S(=O)(=O)C5CC5)c4)n3)ncc2-c2cc(S(C)(=O)=O)ccn2)CC1 (stereo not drawn) [Example 198, (1s,4s)-4-((6′-((2-(1-(Cyclopropylsulfonyl)-1H-pyrazol-4-yl)pyrimidin-4-yl)amino)-4-(methylsulfonyl)-[2,3′-bipyridin]-4′-yl)amino)-1-methylcyclohexan-1-ol]	0.5	0.2	3.7	0.8	0.7	–	–	–	–	–	0.8	0.4	> 10000	2.9	2.9	–	–	–	–	–
COC1CN(c2ccc(-c3cnc(Nc4ccnc(-c5cnn(S(=O)(=O)C6CC6)c5)n4)cc3N[C@H]3CC[C@@H](CN(C)C)CC3)nc2)C1 [Example 93, N^6′-(2-(1-(Cyclopropylsulfonyl)-1H-pyrazol-4-yl)pyrimidin-4-yl)-N^4′-((1s,4s)-4-((dimethylamino)methyl)cyclohexyl)-5-(3-methoxyazetidin-1-yl)-[2,3′-bipyridine]-4′,6′-diamine]	–	–	–	–	–	0.3	0.1	0.1	0.3	0.2	–	–	–	–	–	0.4	0.3	172	2.2	0.5
C[C@]1(O)CC[C@@H](Nc2cc(Nc3ccnc(-c4cnn(S(=O)(=O)C5CC5)c4)n3)ncc2-c2cnc(C(F)(F)F)cn2)CC1 [Example 134, (1s,4s)-4-((2-((2-(1-(Cyclopropylsulfonyl)-1H-pyrazol-4-yl)pyrimidin-4-yl)amino)-5-(5-(trifluoromethyl)pyrazin-2-yl)pyridin-4-yl)amino)-1-methylcyclohexan-1-ol]	–	–	–	–	–	0.9	0.6	34.2	15.6	32.1	–	–	–	–	–	–	–	–	–	–
O=S(=O)(C1CC1)n1cc(-c2nccc(Nc3cc(N[C@H]4CCC[C@H](CO)C4)c(-c4ccc(C(O)C(F)(F)F)cn4)cn3)n2)cn1 (stereo partly drawn) [Example 228, 1-(6′-((2-(1-(Cyclopropylsulfonyl)-1H-pyrazol-4-yl)pyrimidin-4-yl)amino)-4′-(((1S,3S)-3-(hydroxymethyl)cyclohexyl)amino)-[2,3′-bipyridin]-5-yl)-2,2,2-trifluoroethan-1-ol]	1.9	0.5	19.3	12.2	5.6	–	–	–	–	–	2.9	1	> 10000	64.9	14.3	–	–	–	–	–
CN1CCC(Oc2ccc(-c3cnc(Nc4ccnc(-c5cnn(S(=O)(=O)C6CC6)c5)n4)cc3NC3CCN(CC(F)F)CC3)nc2)CC1 [Example 258, N^6′-(2-(1-(Cyclopropylsulfonyl)-1H-pyrazol-4-yl)pyrimidin-4-yl)-N^4′-(1-(2,2-difluoroethyl)piperidin-4-yl)-5-((1-methylpiperidin-4-yl)oxy)-[2,3′-bipyridine]-4′,6′-diamine]	0.2	0.1	14.1	0.1	0.7	–	–	–	–	–	–	–	–	–	–	–	–	–	–	–
CC(C)Nc1cc(Nc2ccnc(-c3cnn(S(=O)(=O)C4CC4)c3)n2)ncc1-c1ccc(N2CCOCC2)cn1 [Example 124, N^6′-(2-(1-(Cyclopropylsulfonyl)-1H-pyrazol-4-yl)pyrimidin-4-yl)-N^4′-isopropyl-5-morpholino-[2,3′-bipyridine]-4′,6′-diamine]	–	–	–	–	–	0.3	0.4	12.7	0.4	3.3	–	–	–	–	–	–	–	–	–	–
CN(C)C[C@H]1CC[C@@H](Nc2cc(Nc3ccnc(-c4cnn(S(=O)(=O)C5CC5)c4)n3)ncc2-c2ccc(OC(F)(F)F)cn2)CC1 [Example 197, N^6′-(2-(1-(Cyclopropylsulfonyl)-1H-pyrazol-4-yl)pyrimidin-4-yl)-N^4′-((1s,4s)-4-((dimethylamino)methyl)cyclohexyl)-5-(trifluoromethoxy)-[2,3′-bipyridine]-4′,6′-diamine]	0.6	0.3	3	0.3	1	–	–	–	–	–	0.5	0.5	1240	5.3	1.1	–	–	–	–	–
C[C@]1(O)CC[C@@H](Nc2cc(Nc3ccnc(-c4cnn(S(=O)(=O)C5CC5)c4)n3)ncc2-c2cnc(OC3CCN(CCF)CC3)cn2)CC1 [Example 153, (1s,4s)-4-((2-((2-(1-(Cyclopropylsulfonyl)-1H-pyrazol-4-yl)pyrimidin-4-yl)amino)-5-(5-((1-(2-fluoroethyl)piperidin-4-yl)oxy)pyrazin-2-yl)pyridin-4-yl)amino)-1-methylcyclohexan-1-ol]	0.4	0.1	3.2	0.2	0.2	–	–	–	–	–	–	–	–	–	–	–	–	–	–	–
